In ChEMBL document CHEMBL1201862, “PubChem BioAssay data set” (2004):
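All cell lines were grown in 96-well plates and treated with compound for 48 hours. Here, GI50 denotes the concentration required for 50% inhibition of growth.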 Activity calls are given as the source filed them. No stated cut-off is given here; in the data, active = GI50 up to about 1.1 µM and inactive = higher.

What was measured:
Assay in all cases: NCI anticancer screen, dose series, 48 h
[1] = tested on: DLD-1
[2] = tested on: DMS-114
[3] = tested on: HOP-18
[4] = tested on: M19-MEL
[5] = tested on: SNB-78
[6] = tested on: XF498
[7] = tested on: KM-20L2
[8] = tested on: LXFL 529
[9] = tested on: RXF 631

| Compound | GI50 [1] | GI50 [2] | GI50 [3] | GI50 [4] | GI50 [5] | GI50 [6] | GI50 [7] | GI50 [8] | GI50 [9] |
| --- | --- | --- | --- | --- | --- | --- | --- | --- | --- |
| O=C(CN1CCOCC1)Nc1nc(-c2ccc(Cl)cc2)cs1 | 33.1 µM (inactive) | 21.3 µM (inactive) | 38.5 µM (inactive) | 32.6 µM (inactive) | 25.2 µM (inactive) | 13.2 µM (inactive) | – | – | – |
| CSCCOC(=O)C(=[N+]=[N-])c1ccc([N+](=O)[O-])cc1 | > 100 µM (inactive) | > 100 µM (inactive) | – | – | – | > 100 µM (inactive) | > 100 µM (inactive) | > 100 µM (inactive) | – |
| O=C(O)C12C3C4C1C1C2C3C1(Br)C41OCCO1 (stereo unspecified) | > 100 µM (inactive) | > 100 µM (inactive) | > 100 µM (inactive) | > 100 µM (inactive) | > 100 µM (inactive) | > 100 µM (inactive) | > 100 µM (inactive) | > 100 µM (inactive) | – |
| N#C/C(=C\c1c(Cl)cccc1Cl)c1ccccc1 | 5.18 µM (inactive) | 12.4 µM (inactive) | > 50.1 µM (inactive) | 8.57 µM (inactive) | 11.1 µM (inactive) | 8.13 µM (inactive) | 3.85 µM (inactive) | 33.7 µM (inactive) | 7.23 µM (inactive) |
| CCCCC(N)CSSCC(N)CCCC (stereo unspecified) | 21.6 µM (inactive) | 17.7 µM (inactive) | > 100 µM (inactive) | 26.2 µM (inactive) | 32.7 µM (inactive) | 20.3 µM (inactive) | – | 16.8 µM (inactive) | – |
| CCCc1nc(N)nc(C(=O)Nc2cccc(C(F)(F)F)c2)c1CC | > 100 µM (inactive) | > 100 µM (inactive) | > 100 µM (inactive) | > 100 µM (inactive) | > 100 µM (inactive) | > 100 µM (inactive) | > 100 µM (inactive) | – | – |
| Cc1nc2c(n1-c1ccc(Br)cc1)C(=O)c1ccccc1C2=O | 7.59 µM (inactive) | 26 µM (inactive) | – | – | 14.6 µM (inactive) | – | – | – | 2.06 µM (inactive) |
| CN1C(=O)CC2(C)c3cc(O)ccc3N(C)C12 (stereo unspecified) | > 89.3 µM (inactive) | 38.9 µM (inactive) | > 100 µM (inactive) | 11.5 µM (inactive) | > 67.3 µM (inactive) | 17.3 µM (inactive) | > 100 µM (inactive) | 27.8 µM (inactive) | > 100 µM (inactive) |
| CCOC(C[C@H](O[Si](C)(C)C(C)(C)C)[C@H]1COC(=S)S1)OCC | – | 36.7 µM (inactive) | – | 35.9 µM (inactive) | – | 27.2 µM (inactive) | 41.4 µM (inactive) | 33.1 µM (inactive) | – |
| CC(CCC(=O)O)c1ccc(Br)cc1 (stereo unspecified) | > 100 µM (inactive) | > 100 µM (inactive) | > 100 µM (inactive) | > 100 µM (inactive) | > 100 µM (inactive) | – | > 100 µM (inactive) | > 100 µM (inactive) | – |
| NCCCCNc1ccc2c(=O)[nH][nH]c(=O)c2c1 | > 100 µM (inactive) | > 100 µM (inactive) | > 100 µM (inactive) | > 100 µM (inactive) | > 100 µM (inactive) | – | > 100 µM (inactive) | > 100 µM (inactive) | – |
| CCN(CC)c1oc(N(CC)CC)c(C(=O)Nc2ccccn2)c(=O)c1C(C)=O | > 100 µM (inactive) | > 100 µM (inactive) | – | > 100 µM (inactive) | > 100 µM (inactive) | > 100 µM (inactive) | > 10 µM (inactive) | > 100 µM (inactive) | – |
| NC(=S)N1N=C2c3ccccc3CC[C@H]2[C@@H]1c1cccs1 | 50.5 µM (inactive) | 22.5 µM (inactive) | 21.1 µM (inactive) | 19.9 µM (inactive) | 32.4 µM (inactive) | 37.2 µM (inactive) | 23.9 µM (inactive) | 30.8 µM (inactive) | – |
| COc1ccc2nc(NC(=O)C(=O)C(C#N)c3ccc([N+](=O)[O-])cc3)sc2c1 (stereo unspecified) | > 100 µM (inactive) | 43.3 µM (inactive) | 99.8 µM (inactive) | > 100 µM (inactive) | > 100 µM (inactive) | – | > 100 µM (inactive) | 23.6 µM (inactive) | – |
| CCCCCCCCCCCOc1ccc(C(=O)C(=O)c2ccc(OCCCCCCCCCCC)c(OCCCCCCCCCCC)c2)cc1OCCCCCCCCCCC | > 100 µM (inactive) | > 100 µM (inactive) | – | > 100 µM (inactive) | > 100 µM (inactive) | > 100 µM (inactive) | > 100 µM (inactive) | > 100 µM (inactive) | – |
| CCc1nc(N)nc(C(=O)NCCNC(=O)c2nc(N)nc(CC)c2C)c1C | > 100 µM (inactive) | > 100 µM (inactive) | > 100 µM (inactive) | > 100 µM (inactive) | > 100 µM (inactive) | > 100 µM (inactive) | > 100 µM (inactive) | > 100 µM (inactive) | > 100 µM (inactive) |
| COc1cc(OC)c(/C=C2\N=C(C)N(Nc3nnc(NN4C(=O)/C(=C/c5c(OC)cc(OC)cc5OC)N=C4C)c4ccccc34)C2=O)c(OC)c1 | > 100 µM (inactive) | > 100 µM (inactive) | > 100 µM (inactive) | > 100 µM (inactive) | > 100 µM (inactive) | – | > 100 µM (inactive) | > 100 µM (inactive) | – |
| CC[C@@]1(O)C(=O)OCc2c1cc1n(c2=O)Cc2cc3cc4c(cc3nc2-1)OCO4 | 0.0559 µM (active) | < 0.001 µM (active) | 0.0429 µM (active) | 0.00787 µM (active) | 0.376 µM (active) | 0.0238 µM (active) | 0.0121 µM (active) | 0.0107 µM (active) | 0.0143 µM (active) |
| Cc1c(C(=O)/C=C/c2ccc([N+](=O)[O-])cc2)[n+]([O-])c2ccccc2[n+]1[O-] | 42.7 µM (inactive) | 30.6 µM (inactive) | > 100 µM (inactive) | > 100 µM (inactive) | 65.5 µM (inactive) | > 100 µM (inactive) | > 100 µM (inactive) | 29.2 µM (inactive) | – |
| Cc1c2cc[n+](C)cc2c(C)c2c1[nH]c1ccc(Oc3ccccc3)cc12 | 1.3 µM (inactive) | – | – | – | – | – | 0.927 µM (active) | 0.296 µM (active) | – |
| Nc1cc2[nH]cnc2c(=O)[nH]1 [DEZAGUANINE] | 13.9 µM (inactive) | 97.7 µM (inactive) | > 121 µM (inactive) | 181 µM (inactive) | > 300 µM (inactive) | 5.42 µM (inactive) | 33.7 µM (inactive) | – | – |
